Columns and labels:
[1] = target: T1, human TREX1 (Homo sapiens, UniProt Q9NSU2); assay: hTREX1 Biochemical Assay (fluorescence, dsDNA substrate degradation); details: full length human TREX1, 4 h pre-incubation, 18 h reaction at 25° C.
T1 construct: N-terminally His-Tev tagged full length human TREX1; made in house; host or cells: E. coli
T1 sequence (Q9NSU2 1-314): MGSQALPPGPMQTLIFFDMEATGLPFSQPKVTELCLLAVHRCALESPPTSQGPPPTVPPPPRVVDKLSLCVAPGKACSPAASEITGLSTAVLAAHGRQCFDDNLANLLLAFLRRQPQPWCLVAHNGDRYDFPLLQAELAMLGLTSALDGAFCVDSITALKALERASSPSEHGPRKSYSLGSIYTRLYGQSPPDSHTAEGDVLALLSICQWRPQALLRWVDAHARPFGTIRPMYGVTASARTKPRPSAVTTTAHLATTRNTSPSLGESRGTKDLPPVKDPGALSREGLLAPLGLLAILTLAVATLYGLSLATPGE
Method in brief: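 His-Tev-tagged full-length E. coli-expressed enzyme (4 pM final) preincubated with compound 4 h at 25° C., then 60 nM quenched-fluorophore dsDNA added in Tris pH 7.4, 5 mM MgCl2, 1% DMSO. After 18 h at 25° C., EDTA-quenched; fluorescence 615 nm (ex 570 nm); IC50 from four-parameter fit versus EDTA and no-inhibitor controls.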

[2] = target: T2, mouse TREX1 (Mus musculus, UniProt Q91XB0); assay: mTREX1 Biochemical Assay (fluorescence, dsDNA substrate degradation); details: full length mouse TREX1, 4 h pre-incubation, 18 h reaction at 25° C.
T2 construct: N-terminally His-Tev tagged full length mouse TREX1; made in house; host or cells: E. coli
T2 sequence (Q91XB0 1-314): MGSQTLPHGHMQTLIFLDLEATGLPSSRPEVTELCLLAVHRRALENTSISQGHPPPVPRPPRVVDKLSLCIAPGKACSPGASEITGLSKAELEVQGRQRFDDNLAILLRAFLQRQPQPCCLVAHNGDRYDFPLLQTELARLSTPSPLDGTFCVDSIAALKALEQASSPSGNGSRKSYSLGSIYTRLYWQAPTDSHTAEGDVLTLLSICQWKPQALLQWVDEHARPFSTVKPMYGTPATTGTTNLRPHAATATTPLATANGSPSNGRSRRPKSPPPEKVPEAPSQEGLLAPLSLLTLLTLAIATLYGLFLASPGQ
Method in brief: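 Full-length His-Tev mouse TREX1 (E. coli) was preincubated with compound 4 h at 25 °C, then run 18 h at 25 °C. Finals were 6 pM enzyme, 60 nM TEX615/quencher dsDNA, 1% DMSO, pH 7.4 Tris with 5 mM MgCl2. After EDTA quench, fluorescence was read at 615 nm; IC50 by four-parameter fit against EDTA and no-inhibitor controls.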

[3] = target: T3, human TREX2 (Homo sapiens, UniProt Q9BQ50); assay: hTREX2 Biochemical Assay (selectivity hTREX1 vs hTREX2); details: biochemical selectivity for hTREX1 vs hTREX2
T3 construct: human TREX2 (residues M44-A279, expressed in E. coli); made in house; host or cells: E. coli
T3 sequence (Q9BQ50 44-279 isoform Q9BQ50-1): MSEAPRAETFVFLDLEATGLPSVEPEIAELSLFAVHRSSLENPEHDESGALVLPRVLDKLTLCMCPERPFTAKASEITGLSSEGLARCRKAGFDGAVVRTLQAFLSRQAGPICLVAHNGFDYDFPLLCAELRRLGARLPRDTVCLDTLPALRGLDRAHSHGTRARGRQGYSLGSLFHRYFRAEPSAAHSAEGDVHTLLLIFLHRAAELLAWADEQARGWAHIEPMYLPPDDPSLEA
Method in brief: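 His-Tev-tagged human TREX2 (M44-A279, E. coli-expressed) preincubated with compound (10-point dose-response) for 4 h at 25 °C in Tris pH 7.4 buffer with 5 mM MgCl2. Reaction then run with 60 nM TEX615/quencher dsDNA and 50 pM enzyme (1% DMSO) for 18 h at 25 °C and EDTA-quenched. Fluorescence read at 615 nm (ex 570 nm); IC50 by four-parameter fit against pre-quenched and no-inhibitor controls.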

SMILES | IC50 [1] [nM] | IC50 [2] [nM] | hTREX1 vs hTREX2 selectivity [3]
C[C@H](c1nc(C(=O)Nc2cnoc2)c(O)c(=O)n1C)[C@H](c1ccccc1)c1ccccc1Cl (single isomer, unassigned) [Example 2 Isomer 2, 2-(1-(2-chlorophenyl)-1-phenylpropan-2-yl)-5-hydroxy-N-(isoxazol-4-yl)-1-methyl-6-oxo-1,6-dihydropyrimidine-4-carboxamide] | 10 to 100 | > 10 | A (A = <25 fold selective for hTREX1)
Cn1c([C@H](C(c2ccccc2)c2ccccc2)C(F)(F)F)nc(C(=O)Nc2cnoc2)c(O)c1=O (single isomer, unassigned) [Example 20 Isomer 2, 5-Hydroxy-N-(isoxazol-4-yl)-1-methyl-6-oxo-2-(1,1,1-trifluoro-3,3-diphenylpropan-2-yl)-1,6-dihydropyrimidine-4-carboxamide] | > 100 | > 10 | A (A = <25 fold selective for hTREX1)
CC(c1nc(C(=O)Nc2cnoc2)c(O)c(=O)n1C)C(c1ccccc1)c1ccc(F)cc1C#N (single isomer, unassigned) [Example 7 Isomer 4] | < 1 | 1 to 10 | B (B = 25 to 50 fold selective for hTREX1)
CC(c1nc(C(=O)Nc2cnoc2)c(O)c(=O)n1C)C(c1cc(F)cc(F)c1)c1ccccc1C#N (single isomer, unassigned) [Example 11 Isomer 2] | 1 to 10 | > 10 | C (C = >50 fold selective for hTREX1)
CC(c1nc(C(=O)Nc2cnoc2)c(O)c(=O)n1C)C(c1ccccc1)c1ccccc1C#N (single isomer, unassigned) [Example 3 Isomer 2] | > 100 | > 10 | A (A = <25 fold selective for hTREX1)
C[C@H](c1nc(C(=O)Nc2cnoc2)c(O)c(=O)n1C)[C@H](c1ccccc1)c1ccccc1Cl (single isomer, unassigned) [Example 2 Isomer 1, 2-[1-(2-chlorophenyl)-1-phenylpropan-2-yl]-5-hydroxy-1-methyl-N-(1,2-oxazol-4-yl)-6-oxopyrimidine-4-carboxamide] | 1 to 10 | > 10 | A (A = <25 fold selective for hTREX1)
CC(c1nc(C(=O)Nc2cnoc2)c(O)c(=O)[nH]1)C(c1ccccc1C#N)c1ccccc1C#N (single isomer, unassigned) [Example 5 Isomer 1, 2-(1,1-bis(2-cyanophenyl)propan-2-yl)-5-hydroxy-N-(isoxazol-4-yl)-6-oxo-1,6-dihydropyrimidine-4-carboxamide] | < 1 | 1 to 10 | B (B = 25 to 50 fold selective for hTREX1)
CC(c1nc(C(=O)Nc2cnoc2)c(O)c(=O)n1C)C(c1ccccc1)c1cc(Cl)ccc1C#N (single isomer, unassigned) [Example 8 Isomer 4] | 10 to 100 | > 10 | B (B = 25 to 50 fold selective for hTREX1)

Next, values leading:

IC50 [1] [nM] | IC50 [2] [nM] | hTREX1 vs hTREX2 selectivity [3] | SMILES
1 to 10 | > 10 | C (C = >50 fold selective for hTREX1) | CC(c1nc(C(=O)Nc2cnoc2)c(O)c(=O)n1C)C(c1ccccc1)c1ccc(Cl)cc1C#N (single isomer, unassigned) [Example 9 Isomer 1]
< 1 | 1 to 10 | C (C = >50 fold selective for hTREX1) | CC(c1nc(C(=O)Nc2cnoc2)c(O)c(=O)n1C)C(c1ccccc1Cl)c1ccccc1C#N (single isomer, unassigned) [Example 10 Isomer 3]

Source: patent publication US20240262814A1, “MODULATORS OF TREX1” (Constellation Pharmaceuticals, Inc., priority 2021, published 2024)
